Results taken from ChEMBL document CHEMBL1765032, “β-Branched acyclic nucleoside analogues as inhibitors of Plasmodium falciparum dUTPase” (Bioorg Med Chem, 2011).

Legend:
L6 = assay: Cytotoxicity against rat L6 cells after 72 hrs by alamar blue assay; format: cell-based; conditions: L6, 72 h
Plasmodium falciparum = assay: microbe, parasite or virus in culture; conditions: K1
[1] = target: T1, Deoxyuridine 5'-triphosphate nucleotidohydrolase, mitochondrial (Homo sapiens, UniProt P33316); assay: Inhibition of human dUTPase by spectrophotometric analysis
T1 sequence (P33316 whole entry): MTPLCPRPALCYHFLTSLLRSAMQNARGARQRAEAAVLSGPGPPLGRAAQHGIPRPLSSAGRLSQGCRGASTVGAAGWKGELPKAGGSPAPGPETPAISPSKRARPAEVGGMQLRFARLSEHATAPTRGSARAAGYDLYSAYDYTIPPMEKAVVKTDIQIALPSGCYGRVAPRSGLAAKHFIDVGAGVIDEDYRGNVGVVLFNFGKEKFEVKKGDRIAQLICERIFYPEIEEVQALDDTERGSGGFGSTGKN

[2] = Inhibition of Plasmodium falciparum dUTPase by spectrophotometric analysis
[3] = Selectivity index, ratio of EC50 for rat L6 cells to EC50 for chloroquine-resistant erythrocytic stage of Plasmodium falciparum K1; format: toxicity, cell-based; conditions: read-out: Ratio EC50

Row | Structure (SMILES) | EC50 (L6) | EC50 (Plasmodium falciparum) | Ki [1] | Ki [2] | selectivity ratio [3]
1 | O=c1ccn([C@H]2C[C@H](O)[C@@H](CNC(c3ccccc3)(c3ccccc3)c3ccccc3)O2)c(=O)[nH]1 | 44 µM | 4.5 µM | – | – | –
2 | CCOC(=O)CCNC(=O)C(CCOC(c1ccccc1)(c1ccccc1)c1ccccc1)Cn1ccc(=O)[nH]c1=O (racemic) | – | – | > 100 µM | 0.5 µM | –
3 | CNC(=O)C(CCO[Si](c1ccccc1)(c1ccccc1)C(C)(C)C)Cn1ccc(=O)[nH]c1=O (racemic) | – | – | > 100 µM | 3.6 µM | –
4 | NC(=O)C(CCNC(c1ccccc1)(c1ccccc1)c1ccccc1)Cn1ccc(=O)[nH]c1=O (racemic) | 177 µM | 1.1 µM | 98 µM | 5.5 µM | 161
5 | CC(C)(C)[Si](OCCC(Cn1ccc(=O)[nH]c1=O)C(=O)O)(c1ccccc1)c1ccccc1 (racemic) | – | – | > 100 µM | 1.6 µM | –
6 | O=C(C(CCOC(c1ccccc1)(c1ccccc1)c1ccccc1)Cn1ccc(=O)[nH]c1=O)N1CCOCC1 (racemic) | – | – | > 100 µM | 2.1 µM | –
7 | CC(C)(C)[Si](OCCNC(=O)C(CCOC(c1ccccc1)(c1ccccc1)c1ccccc1)Cn1ccc(=O)[nH]c1=O)(c1ccccc1)c1ccccc1 (racemic) | – | – | > 100 µM | > 10 µM | –
8 | NC(=O)C(CCOC(c1ccccc1)(c1ccccc1)c1ccccc1)Cn1ccc(=O)[nH]c1=O (racemic) | – | – | > 100 µM | 1.3 µM | –
9 | CN1CCN(C(=O)C(CCOC(c2ccccc2)(c2ccccc2)c2ccccc2)Cn2ccc(=O)[nH]c2=O)CC1 (racemic) | – | – | > 100 µM | 5.6 µM | –
10 | CC(C)(C)[Si](OCCC(Cn1ccc(=O)[nH]c1=O)C(=O)N1CCN(C(=O)OCc2ccccc2)CC1)(c1ccccc1)c1ccccc1 (racemic) | – | – | > 100 µM | 98 µM | –
11 | O=C(O)CCNC(=O)C(CCOC(c1ccccc1)(c1ccccc1)c1ccccc1)Cn1ccc(=O)[nH]c1=O (racemic) | – | – | > 100 µM | 0.2 µM | –
12 | O=c1ccn([C@H]2C[C@H](O)[C@@H](COC(c3ccccc3)(c3ccccc3)c3ccccc3)O2)c(=O)[nH]1 | 192 µM | 6 µM | – | – | –
13 | CN(C)C(=O)C(CCOC(c1ccccc1)(c1ccccc1)c1ccccc1)Cn1ccc(=O)[nH]c1=O (racemic) | – | – | > 100 µM | 2.7 µM | –
14 | O=c1ccn(CCCCOC(c2ccccc2)(c2ccccc2)c2ccccc2)c(=O)[nH]1 | 42 µM | 4.9 µM | – | – | –
15 | O=C(OCc1ccccc1)OCC(CCNC(c1ccccc1)(c1ccccc1)c1ccccc1)Cn1ccc(=O)[nH]c1=O (racemic) | – | – | > 100 µM | 6.5 µM | –
16 | CCNC(=O)C(CCO[Si](c1ccccc1)(c1ccccc1)C(C)(C)C)Cn1ccc(=O)[nH]c1=O (racemic) | – | – | > 100 µM | 5.7 µM | –
17 | O=C(NCCO)C(CCOC(c1ccccc1)(c1ccccc1)c1ccccc1)Cn1ccc(=O)[nH]c1=O (racemic) | – | – | > 100 µM | – | –
18 | COc1cc([C@@H]2c3cc4c(cc3[C@H](O)[C@H]3COC(=O)[C@H]23)OCO4)cc(OC)c1OC [PODOFILOX] | – | 0.012 µM | – | – | –
19 | COCCNC(=O)C(CCOC(c1ccccc1)(c1ccccc1)c1ccccc1)Cn1ccc(=O)[nH]c1=O (racemic) | – | – | > 100 µM | 1.4 µM | –
20 | CC(C)(C)[Si](OCCC(Cn1ccc(=O)[nH]c1=O)C(N)=O)(c1ccccc1)c1ccccc1 (racemic) | – | – | > 100 µM | 5 µM | –
21 | CCN(CC)C(=O)C(CCO[Si](c1ccccc1)(c1ccccc1)C(C)(C)C)Cn1ccc(=O)[nH]c1=O (racemic) | – | – | > 100 µM | 20 µM | –
22 | CN(C)CCNC(=O)C(CCOC(c1ccccc1)(c1ccccc1)c1ccccc1)Cn1ccc(=O)[nH]c1=O (racemic) | – | – | > 100 µM | 7.8 µM | –
23 | O=c1ccn(CC(CO)CCOC(c2ccccc2)(c2ccccc2)c2ccccc2)c(=O)[nH]1 (racemic) | 33 µM | 1.2 µM | – | – | –
24 | O=C(O)C(CCNC(c1ccccc1)(c1ccccc1)c1ccccc1)Cn1ccc(=O)[nH]c1=O (racemic) | 51 µM | 1.3 µM | 90 µM | 7.2 µM | 39
